We go through 17 compounds from the OPERA property sets (Mansouri et al. 2018).

One may read the logP as a log measure of how a compound divides between an organic and an aqueous phase.

In turn, `O=C1CC(=O)N(c2ccccc2)O1` came in with a logP of 0.54.
In the case of `O=c1[nH]c(=O)n(-c2ccccc2)o1` it was 1.74; in that of `O=C1CN(c2ccccc2)C(=O)N1`, 0.83; in that of `O=C1CC(=O)N(Cc2ccccc2)C1`, 0.76.
For `O=C1NC(=O)C(Cc2ccccc2)S1` (configuration not stated) the value was 1.98; for `O=C1NC(=O)C(Cc2ccccc2)O1` (configuration not stated), 1.2.
In the case of `O=C1CN(Cc2ccccc2)C(=O)N1` it was 0.76; in that of `O=C1NC(=O)N(Cc2ccccc2)C1=O`, 1.19; in that of `O=C1NC(=O)C(Cc2ccccc2)N1` (configuration not stated), 0.6.
Compound `O=C1CC(=O)C(c2ccccc2)O1` (configuration not stated) registered a lipophilicity (logP) of 1.47.
For `O=C1NC(=O)C(c2ccccc2)C1=O` (configuration not stated) the value was 2.26; for `O=C1CNC(=O)N1c1ccccc1`, 0.04.
In the case of `NS(=O)(=O)NC(=O)Cc1ccccc1` it was 0.31; in that of `NC(=O)NS(=O)(=O)Cc1ccccc1`, 0.24; in that of `O=C1NC(=O)C(c2ccccc2)O1` (configuration not stated), 1.09.
For `O=C1CC(=O)C(c2ccccc2)N1` (configuration not stated) the value was 0.48; for `O=C1NC(=O)N(c2ccccc2)C1=O`, 0.6.
